Activity calls are given as the source filed them. No cut-off for these calls is given here.
What was measured:
[1] = Ratio of drug level in brain to plasma in C57BL/6 mouse at 10 mg/kg, po measured after 60 mins by LC/MS/MS analysis; assay type: ADME, organism-based; conditions: brain and plasma, read-out: BPR
[2] = target: G-protein coupled receptor 52 (Mus musculus) (UniProt P0C5J4); assay: In vivo agonist activity at GPR52 in C57BL/6 mouse assessed as inhibition of basal locomotor activity at 10 mg/kg, po measured for 60 mins starting at 15 mins post-drug challenge; assay type: functional, organism-based; conditions: time 75.0 min
G-protein coupled receptor 52 (Mus musculus), sequence (P0C5J4 whole entry): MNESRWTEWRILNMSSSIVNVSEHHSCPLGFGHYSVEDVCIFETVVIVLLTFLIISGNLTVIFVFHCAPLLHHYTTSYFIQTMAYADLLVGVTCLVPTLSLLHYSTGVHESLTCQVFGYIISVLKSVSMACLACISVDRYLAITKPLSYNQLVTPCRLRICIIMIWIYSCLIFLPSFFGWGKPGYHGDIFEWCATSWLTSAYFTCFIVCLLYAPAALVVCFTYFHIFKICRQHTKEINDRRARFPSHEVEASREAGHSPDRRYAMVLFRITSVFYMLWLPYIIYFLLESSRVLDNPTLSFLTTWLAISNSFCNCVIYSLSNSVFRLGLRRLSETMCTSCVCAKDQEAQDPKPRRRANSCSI

[3] = target: G-protein coupled receptor 52 (Mus musculus) (UniProt P0C5J4); assay: In vivo agonist activity at GPR52 in po dosed C57BL/6 mouse assessed as inhibition of basal locomotor activity measured for 60 mins starting at 15 mins post-drug challenge; assay type: functional, organism-based; conditions: time 75.0 min
[4] = tested on: Rattus norvegicus; assay: Antipsychotic activity in Sprague-Dawley rat assessed as inhibition of amphetamine-stimulated locomotor activity at 0.5 to 20 mg/kg, po administered 15 mins prior to amphetamine stimulation and measured for 30 to 60 mins post-drug dosage; assay type: functional, organism-based; conditions: dose 0.5-20 mg/kg, time 30-60 min
[5] = Toxicity in Sprague-Dawley rat assessed as inhibition of basal locomotor activity at 20 mg/kg, po; assay type: organism-based; conditions: in vivo
[6] = tested on: Rattus norvegicus; assay: Antipsychotic activity in Sprague-Dawley rat assessed as inhibition of amphetamine-induced disruption of prepulse inhibition at 5 to 20 mg/kg, po administered 15 mins prior to amphetamine challenge and measured after 15 mins; assay type: functional, organism-based; conditions: dose 5-20 mg/kg, time 30.0 min
[7] = tested on: Rattus norvegicus; assay: Antipsychotic activity in Sprague-Dawley rat assessed as inhibition of MK801-induced disruption of prepulse inhibition at 5 to 20 mg/kg, po administered 15 mins prior to […] and measured after 15 mins; assay type: functional, organism-based; conditions: dose 5-20 mg/kg, time 30.0 min
[8] = tested on: Mus musculus; assay: Increase in PPI in 129Sv/Ev mouse with low PPI at 10 mg/kg, po measured after 30 mins; assay type: functional, organism-based
[9] = tested on: Mus musculus; assay: Antipsychotic activity in 129Sv/Ev mouse assessed as inhibition of MK801-induced disruption of prepulse inhibition at 10 mg/kg, po co-administered with haloperidol at 15 mins prior to MK801 challenge and measured after 15 mins; assay type: functional, organism-based; conditions: time 30.0 min
[10] = Induction of catalepsy in Sprague-Dawley rat assessed as increase in latency to move both forepaws at 5 to 100 mg/kg, po measured after 45 mins; assay type: organism-based; conditions: in vivo, 0.75 h, dose 5-100 mg/kg
[11] = Induction of hyperprolactinemia in Sprague-Dawley rat assessed as increase in prolactin release in plasma at 1 to 100 mg/kg, po measured after 60 mins by ELISA; assay type: organism-based; conditions: in vivo, 1 h, dose 1-100 mg/kg
[12] = tested on: Rattus norvegicus; assay: Inhibition of haloperidol-induced hyperprolactinemia in Sprague-Dawley rat assessed as reduction in prolactin release in plasma at 10 mg/kg, po administered 30 mins prior to 0.3 mg/kg haloperidol challenge and measured after 60 mins by ELISA; assay type: functional, organism-based; conditions: time 90.0 min
[13] = Ratio of drug level in brain to plasma in C57BL/6 mouse at 3 mg/kg, po measured after 60 mins by LC/MS/MS analysis; assay type: ADME, organism-based; conditions: brain and plasma, read-out: BPR
[14] = Induction of catalepsy in Sprague-Dawley rat assessed as increase in latency to move both forepaws at 0.1 to 1 mg/kg, sc measured after 45 mins; assay type: organism-based; conditions: in vivo, 0.75 h, dose 0.1-1 mg/kg
[15] = Induction of hyperprolactinemia in Sprague-Dawley rat assessed as increase in prolactin release in plasma at 0.1 to 1 mg/kg, po measured after 60 mins by ELISA; assay type: organism-based; conditions: in vivo, 1 h, dose 0.1-1 mg/kg

Compound | Kp at 1 h [1] | inhibition [2] [%] | other results
O=C(NCCO)c1c(F)ccc2c1CCN2c1cc(Cc2cccc(C(F)(F)F)c2)ccn1 | 1.67 | – | –
NC(=O)c1cccc2c1CCN2c1cc(Cc2cncc(C(F)(F)F)c2)ccn1 | 4.67 | – | –
COc1ccc(Cc2ccnc(N3CCc4c3ccc(F)c4C(=O)NC[C@@H](F)CO)c2)cc1F | – | 62 | –
NC(=O)c1cccc2c1CCN2c1cc(Cc2cc(F)cc(Cl)c2)ccn1 | 12.4 | – | –
NC(=O)c1cccc2c1CCN2c1cc(Cc2cccc(C(F)(F)F)c2)ccn1 | – | – | Kp at 1 h [13]: 4.49
O=C(CCCN1CCC(O)(c2ccc(Cl)cc2)CC1)c1ccc(F)cc1 [HALOPERIDOL] | – | – | Activity [14]: Toxic; Activity [15]: Toxic
C[C@@H](O)CNC(=O)c1cccc2c1CCN2c1cc(Cc2cc(F)c(F)c(F)c2)ccn1 | – | 68 | –
O=C(NC[C@@H](F)CO)c1cccc2c1CCN2c1cc(Cc2cc(F)c(F)c(F)c2)ccn1 | 2.85 | 70 | –
O=C(NCCO)c1c(F)ccc2c1CCN2c1cc(Cc2cc(F)c(F)c(F)c2)ccn1 | – | 68 | –
COC[C@@H](O)CNC(=O)c1cccc2c1CCN2c1cc(Cc2cc(F)c(F)c(F)c2)ccn1 | – | 72 | –

More lines, main results first:

Kp at 1 h [1] | inhibition [2] [%] | Compound | other results
0.16 | – | O=C(NC1CCN(CCO)CC1)c1cccc2c1CCN2c1cc(Cc2ccc3c(c2)CCO3)ccn1 | –
1.36 | 72 | CC(=O)c1cccc(Cc2ccnc(N3CCc4c(C(N)=O)cccc43)c2)c1 | –
– | 67 | COc1ccc(Cc2ccnc(N3CCc4c(C(=O)NC[C@@H](F)CO)cccc43)c2)cc1F | –
– | 70 | O=C(NCCO)c1cccc2c1CCN2c1cc(Cc2cccc(C(F)(F)F)c2)ccn1 | ED50 [3]: 2.7 mg/kg; Activity [4]: Active; Activity [5]: Toxic; Activity [6]: Active; Activity [7]: Active; Activity [8]: Active; Activity [9]: Active; Activity [10]: Non-Toxic; Activity [11]: Non-Toxic; inhibition [12]: Active; Kp at 1 h [13]: 3.51
3 | 65 | O=C(NCCO)c1cccc2c1CCN2c1cc(Cc2cc(F)c(F)c(F)c2)ccn1 | –
– | 81 | NC(=O)c1cccc2c1CCN2c1cc(Cc2ccc3occc3c2)ccn1 | –
0.87 | – | COc1ccc(Cc2ccnc(N3CCc4c(C(=O)NCCO)cccc43)c2)cc1F | –
6.32 | 66 | COc1ccc(Cc2ccnc(N3CCc4c(C(N)=O)cccc43)c2)cc1F | –
5.45 | 79 | O=C(NCCO)c1cccc2c1CCN2c1cc(Cc2cc(F)cc(Cl)c2)ccn1 | –
– | 61 | NC(=O)c1cccc2c1CCN2c1cc(Cc2ccc(F)c(C(F)(F)F)c2)ccn1 | –
7.76 | – | NC(=O)c1cccc2c1CCN2c1cc(Cc2ccc(F)c(Cl)c2)ccn1 | –
